Results from the NIST ThermoML archive (doi:10.1021/je020154p).
± gives the expanded uncertainty stated by the source.

Conditions: Liquid

Structure (SMILES): FCF [difluoromethane]
- vapor or sublimation pressure (268.15 K): 695.4 ± 2.1 kPa
- vapor or sublimation pressure (278.15 K): 952 ± 2.6 kPa
- vapor or sublimation pressure (283.15 K): 1102.2 ± 3 kPa
- vapor or sublimation pressure (288.15 K): 1281.2 ± 3.4 kPa
- vapor or sublimation pressure (298.15 K): 1685.6 ± 4.5 kPa
- vapor or sublimation pressure (308.15 K): 2185.2 ± 5.7 kPa
- vapor or sublimation pressure (318.15 K): 2794.8 ± 7.2 kPa

Structure (SMILES): CCC [propane]
- vapor or sublimation pressure (268.15 K): 407.9 ± 1.5 kPa
- vapor or sublimation pressure (278.15 K): 549.4 ± 1.8 kPa
- vapor or sublimation pressure (283.15 K): 636.4 ± 2 kPa
- vapor or sublimation pressure (288.15 K): 735 ± 2.2 kPa
- vapor or sublimation pressure (298.15 K): 954.8 ± 2.7 kPa
- vapor or sublimation pressure (308.15 K): 1213 ± 3.3 kPa
- vapor or sublimation pressure (318.15 K): 1530.8 ± 4.1 kPa
